One data set has as its target CYP2D6 (Homo sapiens, UniProt P10635). Put plainly: CYP2D6-mediated metabolism: substrate disappearance in PM human liver microsome HHM-0116 supplemented with recombinant CYP2D6-expressing microsome. The settings on record: microsomes, 1 μM substrate, 60 min incubation. Here is the method: a) CYP2D6-mediated metabolism
The pH of the solution was 7.4. The incubation temperature was 37° C. At specific incubation times (0, 5, 10, 30, 60 minutes), an aliquot of 100 μl was withdrawn from the reaction mixture and mixed with 1 ml of ACN containing 5 ng/ml (2S, 3S)-3-(2-methoxybenzylamino)-2-diphenylmethyl-1-azabicyclo[2,2,2] octane as an internal standard. Protein was subsequently precipitated by centrifugation (1,800×g for 10 min). and the resulting supernatant was taken, evaporated and dissolved in 100 μl of 60% ACN. Concentrations of substrates and products in the sample solutions were analyzed with a Sciex API-III mass spectrometer linked with a Hewlett-Packard HP1090 HPLC system. A volume of 10 μl of the sample portion was injected to the HPLC system equipped with a Tosoh ODS-80Ts column manufactured by Tosoh (3.2×15 mm). Mobile phases comprised 80% acetonitrile(ACN) and 10 mM ammonium acetate and the elution was isocratic with a flow rate of 0.2 mlimin. The effluent from the HPLC column was introduced into the atmospheric pressure ionization source via an ion spray interface with splitting the effluent. The ion spray interface was operated at 5000 volt in a positive ion mode. Collision gas (argon) thickness (CGT), curtain gas (N2) and Neblizer gas (air) was 300×10^13 molecules/cm^2, 0.6 liter/minute and 40 PSI, respectively. The Q2 rod offset voltage (R2) was 0-6 V. The compounds were detected by multiple reacting monitoring (MRM) detection in the API-III mass spectrometer. The MS-MS were generally the combination of precursor and product. […] Concentrations of the remaining substrates in each sample solution (%-remaining) were plotted against the desired incubation times (FIG. 1(a), (c), (e), (g), (i), (k)).

The target of the next data set is CYP2C19 (Homo sapiens, UniProt P33261). Put plainly: S-mephenytoin hydroxylation activity. The class given is biochemical. Particulars: 100 μM S-(+)-Mephenytoin, pH 7.4, 37 °C. On the procedure:
As used herein, "S-mephenytoin hydroxylation activity" means the activity of 4'hydroxylation of S-mephenytoin as measured by HPLC-MS.
The reagent compositions of this invention, PM microsome (i.e., HHM0102), normal human liver microsomes mixture (i.e., HLM mix-A, and HLM mix-B, and (CYP2C19 0.1 mg/ml) were tested for hydroxymephenytoin generation activity which is a known property of microsome obtained from a normal metabolizer.
HHM-0102 microsomes (1.0 mg protein/ml) were mixed with a total of 0.3 mg protein/ml of CYP2C19 microsomes and the control microsomes with various ratios. […] Hydroxy mephenytoin which was generated in samples were analyzed by LC/MS/MS.

Sequence of CYP2D6 (P10635 whole entry): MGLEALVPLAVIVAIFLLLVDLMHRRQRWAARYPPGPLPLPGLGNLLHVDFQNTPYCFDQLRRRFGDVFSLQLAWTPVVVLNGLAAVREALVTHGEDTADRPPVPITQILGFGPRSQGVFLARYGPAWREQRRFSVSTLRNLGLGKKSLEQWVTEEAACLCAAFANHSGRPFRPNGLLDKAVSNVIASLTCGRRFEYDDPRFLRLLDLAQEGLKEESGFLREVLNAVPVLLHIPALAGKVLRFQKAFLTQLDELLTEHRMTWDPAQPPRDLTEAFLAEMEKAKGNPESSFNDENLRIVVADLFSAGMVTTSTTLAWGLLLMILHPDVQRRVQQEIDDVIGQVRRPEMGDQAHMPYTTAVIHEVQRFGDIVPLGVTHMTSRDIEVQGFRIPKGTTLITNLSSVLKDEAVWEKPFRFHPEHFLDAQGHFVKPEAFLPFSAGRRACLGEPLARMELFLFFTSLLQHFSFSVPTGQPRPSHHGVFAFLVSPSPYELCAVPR

For the molecule `CC(C)NCC(O)COc1cccc2ccccc12` (centres unmarked) [Propranolol, propranolol], the half-life at 1 µM at CYP2D6 (pH 7.4, T1/2, HHM0116 + 0 mg/ml 2D6 (control microsome)) is 301 min; at CYP2D6 (pH 7.4, T1/2, HHM0116 + 0.1 mg/ml recombinant CYP2D6 microsome) it was 70.2 min; on CYP2D6 (pH 7.4, T1/2, HHM0116 + 0.5 mg/ml recombinant CYP2D6 microsome), 15 min; on CYP2D6 (pH 7.4, T1/2, HHM0116 + 1.0 mg/ml recombinant CYP2D6 microsome) it was 5.4 min.

B1: CYP2C19 0.1 mg/ml: CYP2C19 microsomes at 0.1 mg/ml, tested alone (protein, UniProt P33261 1-490, looked up)
Cytochrome P450 2C19: MDPFVVLVLCLSCLLLLSIWRQSSGRGKLPPGPTPLPVIGNILQIDIKDVSKSLTNLSKIYGPVFTLYFGLERMVVLHGYEVVKEALIDLGEEFSGRGHFPLAERANRGFGIVFSNGKRWKEIRRFSLMTLRNFGMGKRSIEDRVQEEARCLVEELRKTKASPCDPTFILGCAPCNVICSIIFQKRFDYKDQQFLNLMEKLNENIRIVSTPWIQICNNFPTIIDYFPGTHNKLLKNLAFMESDILEKVKEHQESMDINNPRDFIDCFLIKMEKEKQNQQSEFTIENLVITAADLLGAGTETTSTTLRYALLLLLKHPEVTAKVQEEIERVIGRNRSPCMQDRGHMPYTDAVVHEVQRYIDLIPTSLPHAVTCDVKFRNYLIPKGTTILTSLTSVLHDNKEFPNPEMFDPRHFLDEGGNFKKSNYFMPFSAGKRICVGEGLARMELFLFLTFILQNFNLKSLIDPKDLDTTPVVNGFASVPPFYQLCFIPV
modifications: microsomes
notes: CYP2C19 microsomes at 0.1 mg/ml, tested alone
As to B1, the “S-mephenytoin hydroxylation Activity” value in the data set with CYP2C19 came to 18.110 pmol/min/mg.

By half-life is commonly meant how long it takes for the measured level to halve.

The values are drawn from patent US5989844A, “Method for evaluating drug metabolism and reagent compositions therefor” (Pfizer Inc., priority 1997, dated 1999).
